Key:
COX-1 = target: T1, COX-1 (Ovis aries, UniProt P05979); assay: COX-1 inhibition assay (Cayman kit); type: biochemical, ovine; conditions: mean ± SE, n = 3
T1 construct: purchased Cayman 560131
T1 sequence (P05979 25-600): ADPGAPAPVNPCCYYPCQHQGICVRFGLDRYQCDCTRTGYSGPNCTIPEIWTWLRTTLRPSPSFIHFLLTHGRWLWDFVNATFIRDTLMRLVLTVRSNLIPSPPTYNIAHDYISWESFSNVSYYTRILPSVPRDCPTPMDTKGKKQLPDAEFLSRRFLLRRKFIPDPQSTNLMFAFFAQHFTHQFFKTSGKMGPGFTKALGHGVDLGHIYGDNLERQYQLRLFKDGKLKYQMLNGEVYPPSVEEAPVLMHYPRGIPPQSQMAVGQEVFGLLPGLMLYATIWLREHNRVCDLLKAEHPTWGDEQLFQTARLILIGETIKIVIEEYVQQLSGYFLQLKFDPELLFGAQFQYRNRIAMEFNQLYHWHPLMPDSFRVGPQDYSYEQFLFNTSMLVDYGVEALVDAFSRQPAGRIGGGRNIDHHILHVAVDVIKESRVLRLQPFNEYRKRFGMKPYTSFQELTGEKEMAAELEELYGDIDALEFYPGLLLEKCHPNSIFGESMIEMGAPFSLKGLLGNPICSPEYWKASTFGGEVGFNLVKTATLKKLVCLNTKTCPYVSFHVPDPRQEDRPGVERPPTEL

Bcl-2 in BJ-1 cells = assay: Bcl-2 ELISA in treated BJ-1 cells; type: cell-based, human; conditions: BJ-1 cells treated at the IC50 value, mean ± SE, n = 3
Method: Following the treatment of HepG-2, Caco-2, A549, and BJ-1 cells with the SB-CuO-NPs at their respective IC50 values, as illustrated in Figure 9 and detailed in Table 5, an assessment of the activities of the caspase-3 and Bcl-2 enzymes was conducted in the treated cells. […] This mechanism ultimately triggers apoptosis. Additionally, the increased activity of caspase-3 results in a decrease in the expression of cyclin D1 and CDK-2 mRNA, thereby promoting the arrest of the G1 phase of the cell cycle. Othman et al. further noted that the biosynthesized M-NPs facilitate apoptosis by inhibiting the expression of the PI3K/AKT and Ras/Raf/ERK protein signaling pathways.
Invitrogen Corporation, following the manufacturer's instructions.

COX-2 = target: T2, COX-2 (Homo sapiens, UniProt P35354); assay: COX-2 inhibition assay (Cayman kit); type: biochemical; conditions: mean ± SE, n = 3
T2 construct: purchased Cayman 560131
T2 sequence (P35354 18-604): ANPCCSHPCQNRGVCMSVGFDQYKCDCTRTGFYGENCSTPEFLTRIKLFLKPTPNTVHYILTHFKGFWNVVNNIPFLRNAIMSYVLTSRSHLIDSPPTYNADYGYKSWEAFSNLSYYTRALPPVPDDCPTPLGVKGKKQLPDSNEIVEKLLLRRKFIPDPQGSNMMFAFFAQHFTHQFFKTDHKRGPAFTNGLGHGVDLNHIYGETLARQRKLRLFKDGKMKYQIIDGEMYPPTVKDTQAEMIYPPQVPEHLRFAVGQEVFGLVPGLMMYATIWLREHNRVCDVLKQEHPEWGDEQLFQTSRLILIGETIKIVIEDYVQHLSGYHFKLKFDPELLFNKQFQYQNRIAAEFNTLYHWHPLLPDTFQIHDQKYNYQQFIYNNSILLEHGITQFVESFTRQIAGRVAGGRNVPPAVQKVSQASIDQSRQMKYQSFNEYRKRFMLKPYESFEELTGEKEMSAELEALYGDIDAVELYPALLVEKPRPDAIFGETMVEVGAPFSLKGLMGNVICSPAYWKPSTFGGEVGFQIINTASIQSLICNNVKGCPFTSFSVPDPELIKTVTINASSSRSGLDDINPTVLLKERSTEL

[1] = target: bovine serum albumin (BSA) (Bos taurus, UniProt P02769); assay: Inhibition of protein denaturation (anti-arthritic); conditions: read-out: Protein Denaturation Inhib. (%)
Chain of bovine serum albumin (BSA) (P02769 25-607): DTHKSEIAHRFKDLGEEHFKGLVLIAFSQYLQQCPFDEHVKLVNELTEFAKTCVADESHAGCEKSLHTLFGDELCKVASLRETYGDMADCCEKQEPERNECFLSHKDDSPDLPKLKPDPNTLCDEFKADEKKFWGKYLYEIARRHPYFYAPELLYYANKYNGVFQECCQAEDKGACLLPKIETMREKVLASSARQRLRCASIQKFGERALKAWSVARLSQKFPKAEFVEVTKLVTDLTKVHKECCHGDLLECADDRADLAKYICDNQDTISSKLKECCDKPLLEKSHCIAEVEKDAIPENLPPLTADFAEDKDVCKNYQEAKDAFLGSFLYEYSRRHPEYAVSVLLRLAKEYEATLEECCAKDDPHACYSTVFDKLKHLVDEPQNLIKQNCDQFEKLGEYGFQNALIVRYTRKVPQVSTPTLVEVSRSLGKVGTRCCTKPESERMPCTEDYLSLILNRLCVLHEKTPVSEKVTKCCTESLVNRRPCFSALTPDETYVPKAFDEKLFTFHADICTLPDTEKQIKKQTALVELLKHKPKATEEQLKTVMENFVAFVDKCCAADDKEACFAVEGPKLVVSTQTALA
Method: 3.5. Anti-arthritic activity
In the anti-arthritic activity study, this assay involved determining the percentage of […]
anti-inflammatory drug, as prepared according to Meera et al. The protein denaturation percentage was measured by mixing 0.5mL of the test control solution, prepared by combining 0.45 mL of bovine serum albumin (BSA) (5% w/v aqueous solution) with 0.05 mL of distilled water. Then, 0.05 mL of the test solution was added to 0.45 mL of distilled water to form the product control (0.5 mL). The […]
pH value in all prepared solutions was adjusted to 6.3 using HCl (1N). All the samples were incubated at 37 °C for 20 min, and the temperature was then increased to 57 °C, maintaining the samples at that degree for 3 min. After cooling, 2.5 mL of phosphate buffer was added to the prepared solutions. The absorbance was […]
protein denaturation inhibition can be calculated. Proteinase inhibitory activity was assessed by combining the test sample (1 mL) with a reaction mixture containing 0.06 mg trypsin dissolved in 1 mL of 20 mM Tris HCl buffer (pH 7.4). The mixture was then incubated for 5 minutes at 37°C, followed by the addition of 1 mL of casein (0.8% w/v). […] The cloudy suspension was then centrifuged, and the absorbance of the supernatant was measured at 210 nm against buffer as the blank. The percentage of proteinase inhibitory activity was then calculated. […]

DPPH radical scavenging = conditions: mean ± SE, n = 3
Method: The 1,1-Diphenyl-2-picryl-hydrazyl (DPPH) radical scavenging activities were evaluated using the method described by Rahman et al. An antioxidant substance capable of donating a hydrogen atom to a solution containing DPPH- can reduce the stable free radical, causing the solution to change color from violet to pale yellow.
The remaining DPPH- radical was quantified by measuring the intensity of a light-purple colored DPPH methanol solution in the visible range at 518 nm using a spectroscopic method. Two mill iliters of a DPPH solution (100 µ M) in ethanol were mixed with 2 mL of the sample (at each concentration). The reaction mixture for each concentration was thoroughly vortexed and then incubated in the dark at room temperature for 30 minutes. The absorbance was then measured spectrophotometrically at 518 nm against a blank (ethanol). For the control, 2 mL of ethanol was added instead of the sample and run simultaneously with the test.
Ascorbic acid was used at the same concentrations as a positive control. P ercent […]
inhibition of the DPPH free radical was calculated. […]

In the case of `Cc1nn(-c2ccccc2)c(Cl)c1C=NN=C1C(=O)Nc2ccccc21` [SB], the inhibition at 100 µg/mL (COX-1; at 100 µg/mL, read-out: COX-1 Inhib. (%)) is reported as 31.61 ± 0.18%, the IC50 (COX-1) is reported as 27.1 µM and the Bcl-2 (Bcl-2 in BJ-1 cells) is reported as 4.98 ± 0.03 ng/mL. For the same molecule, the inhibition at 100 µg/mL (COX-2; at 100 µg/mL, read-out: COX-2 Inhib. (%)) was 33.86 ± 0.18%, the IC50 (COX-2) was 19.7 µM and the inhibition at 100 µg/mL [1] was 26.11 ± 0.13%. The “Scavenging activity DPPH Inhib. (%)” value (DPPH radical scavenging; at 100 µg/mL) was 44.54 ± 0.18% and the “Scavenging activity DPPH IC50” value (DPPH radical scavenging) was 6.24 ± 0.01 µg/mL.

From publication PMC11859031, “Assessment of the In Vitro Biological Activities of Schiff Base-Synthesized Copper Oxide Nanoparticles as an Anti-Diabetic, Anti-Alzheimer, and Anti-Cancer Agent” (Pharmaceutics, 2025)
